# Counter-ions that a name gives are not always drawn.
# Assays:
# [1] = biological target: T1, Bovine trypsin (Bos taurus, UniProt P00760); test: Kass for trypsin, chromogenic substrate; assay type: biochemical
# T1 construct: Bovine trypsin is purchased from Worthington Biochemicals, Freehold, N.J; purchased Worthington Biochemicals, Freehold, N.J
# T1 sequence (P00760 24-246): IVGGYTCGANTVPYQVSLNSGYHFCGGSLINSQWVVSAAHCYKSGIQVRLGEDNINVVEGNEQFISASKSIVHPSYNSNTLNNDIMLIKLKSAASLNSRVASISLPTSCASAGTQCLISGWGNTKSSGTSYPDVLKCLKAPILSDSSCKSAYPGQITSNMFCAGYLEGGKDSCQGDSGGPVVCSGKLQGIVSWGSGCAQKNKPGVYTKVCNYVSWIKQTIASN
# Procedure: (§1) By substantially following the procedures described above for human thrombin, and using other human blood coagulation system serine proteases and proteases of the fibrinolytic system with the appropriate chromogenic substrates, identified below, selectivity of the compounds of the present invention with respect to the coagulation factor serine proteases and with respect to the fibrinolytic system serine proteases are evaluated as well as their substantial lack of interference with serine proteases of the fibrinolytic system. […] This would be important to the therapeutic use of such agents as an adjunct to streptokinase, t-PA or urokinase thrombolytic therapy and to the use of such agents as an endogenous fibrinolysis-sparing (with respect to t-PA and urokinase) antithrombotic agent. In addition to the lack of interference with the amidase activity of the fibrinolytic proteases, such fibrinolytic system sparing can be studied by the use of human plasma clots and their lysis by the respective fibrinolytic plasminogen activators.
# (§2) Chromogenic substrates: N-Benzoyl-Ile-Glu-Gly-Arg-p-nitroanilide (for factor Xa); N-Cbz-D-Arg-Gly-Arg-p-nitroanilide (for factor IXa assay as the factor Xa substrate); Pyroglutamyl-Pro-Arg-p-nitroanilide (for Factor XIa and for aPC); H-D-Pro-Phe-Arg-p-nitroanilide (for factor XIIa); and Pyroglutamyl-Gly-Arg-p-nitroanilide (for urokinase); are purchased from KabiVitrnm, Stockholm, Sweden, or from Midwest Biotech, Fishers, Ind. Bovine trypsin is purchased from Worthington Biochemicals, Freehold, N.J., and human plasma kallikrein from Kabi Vitrum, Stockholm, Sweden. Chromogenic substrate H-D-Pro-Phe-Arg-p-nitroanilide for plasma kallikrein is purchased from Kabi Vitrum, Stockholm, Sweden. N-Benzoyl-Phe-Val-Arg-p-nitroanilide, the substrate for human thrombin and for trypsin, is synthesized according to procedures described above for the compounds of the present invention, using known methods of peptide coupling from commercially available reactants or purchased from Midwest Biotech, Fishers, Ind.
# [2] = tested on: Human plasma; test: Human plasma anticoagulation, prothrombin time (PT); assay type: biochemical; settings: concentration required to double the clotting time
# Summary of the method: (§3)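 Test compounds are added to human plasma at many concentrations. Clotting is then initiated by reagent (Thromboplastin-C for PT; Actin for 120 s followed by 0.02M calcium chloride for APTT; 10 NIH units/mL bovine thrombin for TT) and timed instrumentally. The concentration giving twofold prolongation is derived by linear extrapolation.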
# [3] = biological target: human thrombin (Homo sapiens, UniProt P00734); test: Inhibition of thrombin amidase activity (Kass), chromogenic substrate; assay type: biochemical; settings: association constant, mean over concentrations
# [4] = tested on: Human plasma; test: Human plasma anticoagulation, thrombin time (TT); assay type: biochemical; settings: concentration required to double the clotting time
# Summary of the method: as §3
# [5] = biological target: factor Xa (Homo sapiens, UniProt P00742); test: Kass for factor Xa, chromogenic substrate; assay type: biochemical
# Procedure: as §1, §2
# [6] = biological target: T2, Human plasmin (Homo sapiens, UniProt P00747); test: Kass for plasmin, chromogenic substrate; assay type: biochemical
# T2 construct: Human plasmin is purchased from Boehringer Mannheim, Indianapolis, Ind; purchased Boehringer Mannheim, Indianapolis, Ind
# Procedure: as §1
# [7] = biological target: T3, t-PA (Homo sapiens, UniProt P00750); test: Kass for t-PA, chromogenic substrate; assay type: biochemical
# T3 construct: purchased American Diagnostica, Greenwich, Conn
# Procedure: as §1
# [8] = tested on: Human plasma; test: Human plasma anticoagulation, activated partial thromboplastin time (APTT); assay type: biochemical; settings: concentration required to double the clotting time
# Summary of the method: as §3
# [9] = tested on: thrombin; settings: Bajusz et al., J. Med. Chem. 1990; cited from earlier work
# [10] = Simoons et al., Circulation 1994; cited from earlier work
# [11] = Index of bioavailability (% relative activity from plasma TT, oral vs i.v.); assay type: in vivo; settings: dose-adjusted AUC of plasma TT, p.o. vs i.v.
# Procedure: Parke Davis) at 37° C. […] Assays are done in duplicate and averaged. […] Each sample population represented alternating sequential time points.
# T3 sequence (P00750 36-562): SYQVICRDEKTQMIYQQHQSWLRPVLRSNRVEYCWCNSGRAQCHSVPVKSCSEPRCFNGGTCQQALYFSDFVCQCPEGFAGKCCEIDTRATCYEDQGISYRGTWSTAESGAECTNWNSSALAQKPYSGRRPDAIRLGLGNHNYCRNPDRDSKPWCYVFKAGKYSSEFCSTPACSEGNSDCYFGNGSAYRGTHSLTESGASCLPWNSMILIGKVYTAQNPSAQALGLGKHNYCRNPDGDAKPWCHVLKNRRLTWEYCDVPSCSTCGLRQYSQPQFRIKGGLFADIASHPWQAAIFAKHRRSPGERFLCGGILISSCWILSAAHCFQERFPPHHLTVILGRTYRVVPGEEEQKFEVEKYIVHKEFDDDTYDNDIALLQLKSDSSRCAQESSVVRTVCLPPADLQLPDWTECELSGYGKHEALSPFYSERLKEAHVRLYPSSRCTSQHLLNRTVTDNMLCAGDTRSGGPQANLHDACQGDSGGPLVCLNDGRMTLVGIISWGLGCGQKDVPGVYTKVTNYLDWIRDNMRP
# T2 sequence (P00747 581-810 limits assumed): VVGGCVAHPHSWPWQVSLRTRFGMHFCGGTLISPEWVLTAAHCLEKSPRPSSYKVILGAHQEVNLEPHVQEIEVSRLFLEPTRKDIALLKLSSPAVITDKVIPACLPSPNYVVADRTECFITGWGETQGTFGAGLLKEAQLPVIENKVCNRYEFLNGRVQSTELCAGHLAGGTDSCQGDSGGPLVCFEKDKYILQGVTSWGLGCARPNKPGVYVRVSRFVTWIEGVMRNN
# T2 sequence (P00747 97-580 partner limits assumed): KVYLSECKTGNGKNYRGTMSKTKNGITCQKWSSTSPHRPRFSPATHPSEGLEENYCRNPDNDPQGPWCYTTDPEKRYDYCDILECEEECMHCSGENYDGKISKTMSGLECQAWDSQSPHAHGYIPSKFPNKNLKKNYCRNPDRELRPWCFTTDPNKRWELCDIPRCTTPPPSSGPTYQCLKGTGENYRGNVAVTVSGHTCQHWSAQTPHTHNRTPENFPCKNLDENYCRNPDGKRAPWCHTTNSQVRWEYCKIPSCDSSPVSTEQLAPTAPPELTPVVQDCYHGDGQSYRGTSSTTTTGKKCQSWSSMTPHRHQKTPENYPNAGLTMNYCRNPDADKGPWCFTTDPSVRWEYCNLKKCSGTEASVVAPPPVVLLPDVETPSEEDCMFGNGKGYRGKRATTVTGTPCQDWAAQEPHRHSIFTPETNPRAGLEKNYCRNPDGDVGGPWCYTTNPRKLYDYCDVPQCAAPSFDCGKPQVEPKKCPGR
# Chain of factor Xa (P00742 235-488 limits assumed): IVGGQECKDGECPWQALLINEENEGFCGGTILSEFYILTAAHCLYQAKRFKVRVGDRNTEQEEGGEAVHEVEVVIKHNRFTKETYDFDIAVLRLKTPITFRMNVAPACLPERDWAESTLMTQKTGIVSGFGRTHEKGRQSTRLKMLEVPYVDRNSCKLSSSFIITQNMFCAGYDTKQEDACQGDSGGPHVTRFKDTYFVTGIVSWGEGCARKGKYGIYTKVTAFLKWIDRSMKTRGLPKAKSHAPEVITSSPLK
# Chain of factor Xa (P00742 41-179 partner limits assumed): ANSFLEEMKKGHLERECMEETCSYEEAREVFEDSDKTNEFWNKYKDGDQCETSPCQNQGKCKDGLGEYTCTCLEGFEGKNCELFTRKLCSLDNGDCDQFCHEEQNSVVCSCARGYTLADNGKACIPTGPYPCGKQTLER
Kass Trypsin [1],Kass Human Thrombin [3],Kass Xa [5],Kass Plasmin [6],Kass t-PA [7],Molecule,2x Clotting time PT [2],2x Clotting time TT [4],2x Clotting time APTT [8],direct inhibition of thrombin [9],anticoagulant activity in man [10],% oral/i.v. activity (Rat) [11]
21 × 10^6 (L/mole),770 × 10^6 (L/mole),0.14 × 10^6 (L/mole),0.44 × 10^6 (L/mole),0.31 × 10^6 (L/mole),EtSO2 -D-Phe-Pro-p-NHCH2 -C6 H4 C(=NH)NH2.HCl [Example 23],120 ng/mL,7 ng/mL,86 ng/mL,–,–,–
0.96 × 10^6 (L/mole),3.6 × 10^6 (L/mole),0.62 × 10^6 (L/mole),0.031 × 10^6 (L/mole),0.002 × 10^6 (L/mole),D-hPro-N(PhCH2 CH2)Gly-p-NHCH2 -C6 H4 C(NH)NH2.2HCl [Example 21],"1,000 ng/mL",160 ng/mL,"2,000 ng/mL",–,–,–
–,–,–,–,–,N=C(N)NCCC[C@@H](C=O)NC(=O)[C@@H]1CCCN1C(=O)[C@H](N)Cc1ccccc1 [D-Phe-Pro-Arg-H],–,–,–,potent direct inhibition of thrombin,–,–
–,–,–,–,–,CN[C@H](Cc1ccccc1)C(=O)N1CCC[C@H]1C(=O)N[C@H](C=O)CCCNC(=N)N [D-MePhe-Pro-Arg-H],–,–,–,potent direct inhibition of thrombin,–,–
–,–,–,–,–,CC(C)(C)OC(=O)N[C@H](Cc1ccccc1)C(=O)N1CCC[C@H]1C(=O)N[C@H](C=O)CCCNC(=N)N [Boc-D-Phe-Pro-Arg-H],–,–,–,potent direct inhibition of thrombin,–,–
8.5 × 10^6 (L/mole),3.0 × 10^6 (L/mole),0.043 × 10^6 (L/mole),0.042 × 10^6 (L/mole),0.004 × 10^6 (L/mole),D-hPro-Pro(4-cis-PhO)-p-NHCH2 -C6 H4 C(NH)NH2.2HCl [Example 22],"1,000 ng/mL",170 ng/mL,"2,300 ng/mL",–,–,–
–,–,–,–,–,CN[C@H](Cc1ccccc1)C(=O)N1CCC[C@H]1C(=O)N[C@H](C=O)CCCNC(=N)N.O=S(=O)(O)O [D-MePhe-Pro-Arg-H sulfate],–,–,–,–,anticoagulant in man,–
–,–,< 0.009 × 10^6 (L/mole),–,–,"CCS(=O)(=O)N[C@H](Cc1ccccc1)C(=O)N1CCC[C@H]1C(=O)NCCc1cccc(NC(=N)N)c1 [Example 37, EtSO2 -D-Phe-Pro-m-NHCH2 CH2 C6 H4 NHC(NH)NH2.HCl]","> 9,000 ng/mL","> 9,000 ng/mL","> 9,000 ng/mL",–,–,–

Molecule,Kass Trypsin [1],Kass Human Thrombin [3],Kass Xa [5],Kass Plasmin [6],Kass t-PA [7],2x Clotting time PT [2],2x Clotting time TT [4],2x Clotting time APTT [8],direct inhibition of thrombin [9],anticoagulant activity in man [10],% oral/i.v. activity (Rat) [11]
EtSO2 -Phg-cis-Ohi-p-NHCH2 C6 H4 C(NH)NH2.HCl [Example 44],–,–,0.66,1.8,0.04,170 ng/mL,4. ng/mL,100 ng/mL,–,–,–
"CCS(=O)(=O)N[C@H](Cc1ccccc1)C(=O)N1CCC[C@H]1C(=O)NCCCCNC(=N)N [Example 1, EtSO2 -D-Phe-Pro-Agm.HCl]",–,–,–,–,0.082,–,250 ng/mL,–,–,–,8%
